Measurements taken from article PMC12329412, “Study of the mass balance, biotransformation, and safety of [^14C]IBI351 in healthy Chinese subjects” (Journal of Biomedical Research, 2024).
Where “and” joins values, the source holds several entries; their conditions need not be identical. Equal entries are not always repeated. Marks after values point to notes of the source that are not given here.

How the values were obtained:
[1] = Plasma pharmacokinetics of IBI351 parent drug (HPLC-MS/MS) after a single oral dose of [14C]IBI351; type: in vivo, human
Procedure: (§1) This was a single-center, single-dose, open-trial study involving six healthy Chinese male subjects. They received a single dose of 600 mg/150 μCi [^14C]IBI351 on day 1 after fasting for at least 10 h. Blood, urine, and fecal samples were collected at specified time points or intervals within 15 days (0–336 h) following the administration of [^14C]IBI351.
(§2) The endpoint of blood analysis was a plasma radioactivity concentration less than 1/8 of the baseline plasma value. Venous blood samples were collected from the six subjects (01101–01106) at the following time points (in hours): −1 (pre-dosing), 0.5, 1, 2, 4, 8, 12, 24, and at 24-h intervals (post-dosing). Whole blood aliquots were collected for radioactivity measurement, and blood samples were centrifuged (1500 [± 10] g, 4 ℃, 10 min) for metabolite identification. All samples were stored at −10–−30 ℃ until analysis.
Plasma, urine, and fecal samples were analyzed using high-performance liquid chromatography-tandem mass spectrometry (HPLC-MS/MS; ABSciex, Carlsbad, CA, USA) to determine the concentrations of IBI351. Samples containing stable isotope-labeled GF1927 (C32H27D3ClFN6O4, with a molecular weight of 620.10) as an internal standard were subjected to protein precipitation with acetonitrile and separated on a Waters Xbridge C18 column (3.5 μm, 50 mm × 2.1 mm; Waters, Milford, MA, USA) at 40 ℃. The mobile phase consisted of deionized water (with 0.1% formic acid) and acetonitrile (with 0.1% formic acid), delivered by gradient elution at 0.6 mL/min, and the gradient elution program was 30% phase B in 0–0.29 min, 80% phase B in 0.30–1.80 min, 30% phase B in 1.81–3.00 min. The detection was performed on a Triple Quad 6500+ tandem mass spectrometer in the positive ion electrospray ionization mode. Quantification was conducted by multiple reaction monitoring of the transitions m/z 617.3→358.2 for IBI351 and m/z 622.2→363.1 for internal standard, respectively. The calibration range for IBI351 in human plasma was 5–5000 ng/mL.
(§3) Statistical analysis of TRA in the whole blood and plasma, concentrations of IBI351, corresponding pharmacokinetic parameters, and urine and fecal excretion data was performed using Microsoft Excel 2010. The pharmacokinetic parameters were calculated using Pkanalix 2021R1 (Lixoft, Antony, France). The drug-time curve was plotted using WinNonlin® (version 8.3, Certara). Data were analyzed using the SAS 9.4 software and presented as mean ± standard deviation.

[2] = Pharmacokinetics of total radioactivity (TRA) in plasma by liquid scintillation counting; type: in vivo, human; details: for Tmax: single oral 600 mg/150 μCi [14C]IBI351, fasted, median (min, max)
Procedure: as §1, §2
(§4) Blood, plasma, urine, and fecal samples were analyzed for TRA using the Tri-Carb model 3110 TR liquid scintillation counter (PerkinElmer, Waltham, MA, USA). Blood samples were divided into two parallel portions (0.5 g) and completely burned by OX-501 oxidizer (R.J. Harvey, Tappan, NY, USA). Finally, the samples were analyzed by liquid scintillation counting. Plasma (0.5 g) and urine (1 g) samples were directly analyzed by liquid scintillation counting. Fecal samples were first homogenized with isopropanol/water (50/50, v/v). The excretion of radioactivity in the urine and feces, referring to the cumulative recovery of total radioactive material in each time period, was defined as the sum of the percentage of TRA in the urine and feces relative to the administered dose. The TRA in each sample during a time period and the percentage of TRA related to the administered dose (% of dose) were calculated using the following formula: % of dosage = (TRA detected in the sample/radioactive dosage) × 100%.
as §3

[3] = Ratio of total radioactivity in whole blood to plasma; type: in vivo, human; details: Mean±SD, n=6
Procedure: as §2, §4
The radioactivity in the whole blood and plasma is represented by the TRA ratio between the whole blood and plasma.

[4] = Radioactive metabolite profiling in pooled plasma, urine and feces; type: in vivo, human
Procedure: Moreover, four plasma samples at 1 h, 4 h, 48 h, and 96 h were obtained by mixing them in equal volumes. Urine samples were pooled across individuals at an equal volume to obtain one pooled sample within each time period of 0–24 h, 24–48 h, and 48–96 h. Fecal samples (0–192 h) were pooled at the same weight percentages across collection intervals for each subject. Moreover, fecal samples were pooled across individuals at an equal weight to obtain one pooled sample within each time period of 0–72 h, 72–120 h, and 120–192 h. Plasma, urine, and fecal homogenates were extracted and concentrated using organic solvents, and then the redissolved solutions were used for metabolite profile analysis. The plasma, urine, and fecal extracts were separated on HPLC columns, and the HPLC flow fractions were collected in Deepwell LumaPlateTM-96 plates at 15 s/fraction using an automatic fraction collector. The radioactivity of each fraction was quantified using a microplate detector with ARC® Convert and Evaluation software (3.0.2.379) and transformed to obtain the radioactive metabolite spectra. The radioactive metabolite spectra of each sample were integrated to acquire the peak area of each radioactive metabolite peak, the proportion of each spectral peak to the total radioactive intensity of the sample, and the proportion of the radioactivity of the major metabolites to the TRA in the corresponding blood, urine, and fecal samples. Therefore, the ratio of metabolites' concentrations to the total drug exposure (AUC) in the plasma and the ratio of each metabolite's level to the dose administered in the urine and feces were calculated. Liquid chromatography with low-energy radionuclide detection and mass spectrometry was used to identify the main metabolites in human plasma, urine, and fecal samples and to identify the possible biotransformation pathways of IBI351 in these samples.

albumin = biological target: T1, albumin (Homo sapiens, UniProt P02768); assay: Covalent binding analysis of IBI351 in the plasma; type: in vitro ADME
T1 construct: from tissue; host or cells: plasma of healthy human male subjects

[5] = IBI351 parent drug in plasma, single oral 600 mg/150 μCi, n=6, mean±SD
[6] = total plasma radioactivity, single oral 600 mg/150 μCi, n=6, mean±SD

T1 sequence (P02768 25-609): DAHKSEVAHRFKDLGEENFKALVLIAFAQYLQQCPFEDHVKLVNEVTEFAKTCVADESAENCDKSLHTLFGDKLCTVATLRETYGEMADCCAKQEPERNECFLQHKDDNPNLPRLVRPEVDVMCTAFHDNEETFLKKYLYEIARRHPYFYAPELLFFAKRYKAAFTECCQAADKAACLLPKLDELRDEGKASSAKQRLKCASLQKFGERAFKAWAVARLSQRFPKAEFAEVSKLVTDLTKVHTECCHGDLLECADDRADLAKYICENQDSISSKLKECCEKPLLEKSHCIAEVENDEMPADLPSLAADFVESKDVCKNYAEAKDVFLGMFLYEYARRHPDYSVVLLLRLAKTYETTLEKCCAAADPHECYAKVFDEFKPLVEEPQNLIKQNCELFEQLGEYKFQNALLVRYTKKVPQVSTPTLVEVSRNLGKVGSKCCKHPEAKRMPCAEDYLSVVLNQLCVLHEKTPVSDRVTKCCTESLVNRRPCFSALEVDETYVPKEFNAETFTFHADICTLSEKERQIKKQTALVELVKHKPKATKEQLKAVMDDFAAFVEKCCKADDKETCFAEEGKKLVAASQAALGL

In the case of `C=CC(=O)N1CCN2c3c(c(=O)n(-c4c(C)ccnc4C(C)C)c4nc(-c5c(O)cccc5F)c(Cl)cc34)N(C)C(=O)C2C1` (stereo not shown) [IBI351], the quantifiable time point ([1]; IBI351 parent drug in plasma) is reported as 168 h, the “AUC0–last” value [1, 5] is reported as 2.65×10^4±5.90×10^3 h·ng Eq./mL and the CL/F [1, 5] is reported as 25.6 (± 5.56) L/h and 25.6±5.56 L/h. The Cmax [1, 5] was 3.90×10^3±8.02×10^2 ng Eq./mL, the Cmax ([1]; IBI351 parent drug in plasma, single oral 600 mg/150 μCi, n=6, mean±SD, listed as IB1351) was 3.90 × 10^3 (± 8.02 × 10^2) ng Eq./mL and the Cmax ([1]; male, human, oral, 600 mg, IBI351 parent drug in plasma, read-out: mean Cmax) was 3900 ng/mL. The CL renal ([1]; male, human, plasma, single oral 600 mg/150 μCi, read-out: renal clearance (converted)) was 30.3 mL/min, the Tmax ([1]; male, human, IBI351 parent drug in plasma, single oral 600 mg/150 μCi, fasted, n=6, median (min, max)) was 1 h and the half-life ([1]; male, human, IBI351 parent drug in plasma, single oral 600 mg/150 μCi, n=6, mean±SD) was 1040 ± 714 min. The MRT last ([1]; male, human, IBI351 parent drug in plasma, single oral 600 mg/150 μCi, n=6, mean±SD, read-out: MRT0–last) was 8.24 ± 1.1 h, the Vd/F ([1]; male, human, IBI351 parent drug in plasma, single oral 600 mg/150 μCi, n=6, mean±SD, read-out: Vz/F) was 581 ± 323 L and the quantifiable time point ([2]; TRA in plasma) was 456 h. For the same molecule, the Tmax ([2]; total plasma radioactivity, n=6) was 2.00 h and 2.00 (2.00, 4.00) h, the Tmax ([2]; total plasma radioactivity, n=6, listed as [^14C]IBI351) was 2 h and the “AUC0–inf” value [2, 6] was 4.69×10^5±1.10×10^5 h·ng Eq./mL. The “AUC0–last” value [2, 6] was 4.33×10^5±1.04×10^5 h·ng Eq./mL, the CL/F [2, 6] was 1.32 ± 0.319 L/h and the Cmax [2, 6] was 7.26 × 10^3 (± 1.68 × 10^3) ng Eq./mL and 7.26×10^3±1.68×10^3 ng Eq./mL. For the same molecule, the “MRT0–last” value [2, 6] was 108 ± 4.20 h, the T1/2 [2, 6] was 129 (± 21.7) h and 129±21.7 h and the Vz/F [2, 6] was 242 ± 50.7 L. For the same molecule, the T1/2 ([2]; total plasma radioactivity, single oral 600 mg/150 μCi, n=6, mean±SD, listed as [^14C]IBI351) was 129 h, the “Ratio of whole blood to total plasma radioactivity” value (“Ratio of whole blood” for short) ([3]; 0.50 h post-dose) was 0.655±0.0841 and the “Ratio of whole blood” value ([3]; 1.00 h post-dose) was 0.716±0.0588. The “Ratio of whole blood” value ([3]; 4.00 h post-dose) was 0.606±0.0323, the “Ratio of whole blood” value ([3]; 12.0 h post-dose) was 0.571±0.0884 and the “Ratio of whole blood” value ([3]; 24.0 h post-dose) was 0.626±0.0402. For the same molecule, the “Ratio of whole blood” value ([3]; 48.0 h post-dose) was 0.670±0.0320, the “Feces (0–192 h) % of dose” value ([4]; pooled feces 0–192 h) was 9.71 % of dose and the “Plasma (0–144 h) % of AUC (share of total plasma radioactivity exposure)” value ([4]; pooled plasma 0–144 h) was 4.54 % of AUC. The “Plasma (0–144 h) Metabolite/parent drug (%)” value ([4]; pooled plasma 0–144 h, relative to the parent drug) was 100.00%, the “Urine (0–96 h) % of dose” value ([4]; pooled urine 0–96 h) was 1.16 % of dose and the “Feces+urine % of dose” value ([4]; sum of feces 0–192 h and urine 0–96 h) was 10.87 % of dose. For the same molecule, the “covalent binding in the plasma” value (albumin) was “presence of covalent binding between IBI351 and albumin”.
